For orientation: IC50 means the point on the concentration scale where inhibition reaches its midpoint. In general, EC50 refers to the concentration that produces a half-maximal response. The AC50 is the midpoint of the concentration-response curve, whichever way the signal moves. By CC50 is commonly meant the concentration at which the toxic effect on the cells reaches its halfway point.

One assay can be described thus: cells. In kind it is functional, cell-based. The following applies: PPC-1.
In another assay the test system is MDA-MB-435. Briefly: cells. In kind it is functional, cell-based. The following applies: Homo sapiens.
Assay [1] in a line: Luminescence Cell-Based Dose Retest to Confirm Activators of 5'UTR Stem-Loop Driven Alpha-Synuclein mRNA Translation in H4 Neuroglioblastoma Cells. [Related pubchem assays (depositor defined):AID1813, AID1829]. In kind it is functional.
Assay [2] is described as follows: Luminescence Cell-Based Dose Response HTS to Identify Activators of Luciferase Translation or Activity in H4-C Neuroglioblastoma Cells. [Related pubchem assays: 1829 (Project Summary), 1814 (Primary HTS)]. In kind it is functional.
Assay [3] can be described thus: Luminescence Cell-Based Dose Response HTS to Identify Activators of Luciferase Translation or Activity in H4 […] Cells. [Related pubchem assays: 1829 (Project Summary), 1814 (Primary HTS)]. In kind it is functional.
Assay [4] is described as follows: Luminescence Cell-Based Dose Confirmation HTS to Identify Activators of 5'UTR Stem-Loop Driven Alpha-Synuclein mRNA Translation in H4 Neuroglioblastoma Cells. [Related pubchem assays: 1829 (Project Summary), 1814 (Primary HTS)]. In kind it is functional.
Assay [5] in a line: Luminescence Cell-Based Dose Response HTS to Identify Activators of 5'UTR Stem-Loop Driven Prion Protein mRNA Translation in H4-C Neuroglioblastoma Cells. [Related pubchem assays: 1829 (Project Summary), 1814 (Primary HTS)]. In kind it is functional.
Another assay deals with CAAX prenyl protease 2 (Homo sapiens, UniProt Q9Y256). Briefly: inhibition of Ras-converting CAAX protease Rce1 – biochemical, yeast membranes, quenched-peptide fluorescence, cherry-pick, dose response (AID 588849).
A further assay concerns the target Trypsin (Sus scrofa, UniProt P00761). Put plainly: trypsin protease activity blockade – biochemical, quenched peptide fluorescence, cherry-pick, selectivity assay for Rce1 protease inhibitor project, dose response (AID 488789).
The nature of assay [6]: protection from phage-mediated lysis, alamar blue read-out – E. coli UTI89, K1F phage, bacterial capsule biogenesis inhibitors (AID 488966). In kind it is functional.
For another assay, the system named is H4. Briefly: Luminescence Cell-Based Dose Response HTS to Identify Activators of 5'UTR Stem-Loop Driven Prion Protein mRNA Translation in H4 Neuroglioblastoma Cells. [Related pubchem assays: 1829 (Project Summary), 1814 (Primary HTS)]. As to conditions: Homo sapiens. In kind it is functional.
Assay [7] is described as follows: Luminescence Cell-Based Dose Confirmation to Identify Activators of 5'UTR Stem-Loop Driven Alpha-Synuclein mRNA Translation in H4 Neuroglioblastoma Cells. [Related pubchem assays: 1829 (Project Summary), 1814 (Primary HTS)]. In kind it is functional.
A short description of assay [8]: Luminescence Cell-Based Dose Response to Identify Activators of 5'UTR Stem-Loop Driven Prion Protein mRNA Translation in H4-C Neuroglioblastoma Cells. [Related pubchem assays: 1829 (Project Summary), 1814 (Primary HTS)]. In kind it is functional.
Assay [9] addresses NACHT, LRR and PYD domains-containing protein 3 (Homo sapiens, UniProt Q96P20). Put plainly: NALP3 inhibitors in yeast, dose response, luminescent (AID 488799). In kind it is functional.
Assay [10] in a line: Luminescence Cell-Based Dose Response to Identify Activators of Luciferase Translation or Activity in H4-C Neuroglioblastoma Cells. [Related pubchem assays: 1829 (Project Summary), 1814 (Primary HTS)]. In kind it is functional.
The target of the next assay is Large T antigen (Simian virus 40, UniProt P03070). In kind it is functional, Betapolyomavirus macacae.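 Further: Confirmatory-stage PubChem screen for compounds that inhibit SV40 T antigen.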
The target in the next assay is Cytochrome P450 2C19 (Homo sapiens, UniProt P33261). Put plainly: Cytochrome panel assay with activity outcomes. Panel member name: p450-cyp2c19 Compounds with AC50 equal or less than 10 uM are considered active. As to conditions: read-out: AC50. In kind it is functional.
Assay [11] deals with T1, Voltage-gated N-type calcium channel alpha-1B subunit/Amyloid beta A4 precursor protein-binding family A member 1 (Homo sapiens, UniProt Q00975+Q02410). In kind it is protein assay.
T1 sequence (Q00975 whole entry): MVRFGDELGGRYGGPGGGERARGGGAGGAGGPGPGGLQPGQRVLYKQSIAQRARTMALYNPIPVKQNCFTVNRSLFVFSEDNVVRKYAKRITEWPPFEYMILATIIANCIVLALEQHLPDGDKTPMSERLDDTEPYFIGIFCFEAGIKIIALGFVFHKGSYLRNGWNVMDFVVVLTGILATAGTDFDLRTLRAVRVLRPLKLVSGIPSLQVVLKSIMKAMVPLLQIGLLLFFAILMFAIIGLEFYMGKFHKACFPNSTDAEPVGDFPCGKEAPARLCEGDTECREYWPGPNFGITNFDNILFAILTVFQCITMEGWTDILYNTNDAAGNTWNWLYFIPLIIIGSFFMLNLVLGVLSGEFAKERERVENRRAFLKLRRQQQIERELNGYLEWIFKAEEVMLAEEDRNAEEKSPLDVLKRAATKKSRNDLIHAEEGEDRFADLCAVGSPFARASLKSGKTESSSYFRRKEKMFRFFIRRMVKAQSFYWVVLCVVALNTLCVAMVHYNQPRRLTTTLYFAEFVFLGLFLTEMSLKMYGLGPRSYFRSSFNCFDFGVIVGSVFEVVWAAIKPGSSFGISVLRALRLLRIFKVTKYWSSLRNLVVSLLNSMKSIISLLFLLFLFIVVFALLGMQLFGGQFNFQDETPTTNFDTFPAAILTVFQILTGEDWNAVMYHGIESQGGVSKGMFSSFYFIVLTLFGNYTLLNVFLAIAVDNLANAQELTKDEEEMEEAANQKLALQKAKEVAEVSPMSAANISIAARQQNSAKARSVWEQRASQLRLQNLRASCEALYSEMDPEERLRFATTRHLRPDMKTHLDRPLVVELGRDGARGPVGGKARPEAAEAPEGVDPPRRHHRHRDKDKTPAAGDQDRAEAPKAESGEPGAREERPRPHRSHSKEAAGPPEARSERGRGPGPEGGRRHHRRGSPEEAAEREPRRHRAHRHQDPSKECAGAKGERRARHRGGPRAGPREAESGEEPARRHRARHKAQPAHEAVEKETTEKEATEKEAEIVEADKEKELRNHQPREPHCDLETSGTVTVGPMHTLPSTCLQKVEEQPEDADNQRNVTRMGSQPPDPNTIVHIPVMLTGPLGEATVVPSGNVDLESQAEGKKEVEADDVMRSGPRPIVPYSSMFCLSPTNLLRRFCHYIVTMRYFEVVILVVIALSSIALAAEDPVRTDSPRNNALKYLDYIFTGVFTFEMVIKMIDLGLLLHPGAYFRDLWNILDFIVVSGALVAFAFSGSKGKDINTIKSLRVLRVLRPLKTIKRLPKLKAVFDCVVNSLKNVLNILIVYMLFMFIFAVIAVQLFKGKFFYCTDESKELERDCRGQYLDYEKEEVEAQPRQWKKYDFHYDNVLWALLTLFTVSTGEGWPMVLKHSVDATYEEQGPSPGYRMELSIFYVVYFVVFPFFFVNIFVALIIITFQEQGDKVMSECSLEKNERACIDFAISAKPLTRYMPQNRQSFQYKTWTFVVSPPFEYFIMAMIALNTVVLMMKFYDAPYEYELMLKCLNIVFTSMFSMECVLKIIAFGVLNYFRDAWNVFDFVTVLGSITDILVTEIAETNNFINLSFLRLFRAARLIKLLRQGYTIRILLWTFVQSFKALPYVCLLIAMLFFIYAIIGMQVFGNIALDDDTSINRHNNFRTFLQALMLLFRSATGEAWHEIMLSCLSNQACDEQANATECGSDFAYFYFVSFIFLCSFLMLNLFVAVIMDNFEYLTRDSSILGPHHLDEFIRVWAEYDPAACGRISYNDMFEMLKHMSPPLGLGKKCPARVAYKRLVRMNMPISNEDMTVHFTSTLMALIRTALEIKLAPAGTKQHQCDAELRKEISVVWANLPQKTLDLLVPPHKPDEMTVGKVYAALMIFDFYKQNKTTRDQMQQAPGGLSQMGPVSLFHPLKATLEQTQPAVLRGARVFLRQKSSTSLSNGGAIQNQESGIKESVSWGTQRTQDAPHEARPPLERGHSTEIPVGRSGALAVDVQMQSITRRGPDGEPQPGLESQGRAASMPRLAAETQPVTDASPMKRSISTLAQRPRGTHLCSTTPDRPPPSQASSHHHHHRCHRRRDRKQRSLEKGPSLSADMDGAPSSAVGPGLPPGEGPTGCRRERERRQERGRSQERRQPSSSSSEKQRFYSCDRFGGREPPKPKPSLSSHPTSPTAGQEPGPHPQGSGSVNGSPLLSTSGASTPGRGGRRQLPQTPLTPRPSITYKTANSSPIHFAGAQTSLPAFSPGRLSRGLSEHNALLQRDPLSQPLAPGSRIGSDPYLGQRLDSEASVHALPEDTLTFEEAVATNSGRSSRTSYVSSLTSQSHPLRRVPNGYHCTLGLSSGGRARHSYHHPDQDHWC
T1 sequence (Q02410 whole entry): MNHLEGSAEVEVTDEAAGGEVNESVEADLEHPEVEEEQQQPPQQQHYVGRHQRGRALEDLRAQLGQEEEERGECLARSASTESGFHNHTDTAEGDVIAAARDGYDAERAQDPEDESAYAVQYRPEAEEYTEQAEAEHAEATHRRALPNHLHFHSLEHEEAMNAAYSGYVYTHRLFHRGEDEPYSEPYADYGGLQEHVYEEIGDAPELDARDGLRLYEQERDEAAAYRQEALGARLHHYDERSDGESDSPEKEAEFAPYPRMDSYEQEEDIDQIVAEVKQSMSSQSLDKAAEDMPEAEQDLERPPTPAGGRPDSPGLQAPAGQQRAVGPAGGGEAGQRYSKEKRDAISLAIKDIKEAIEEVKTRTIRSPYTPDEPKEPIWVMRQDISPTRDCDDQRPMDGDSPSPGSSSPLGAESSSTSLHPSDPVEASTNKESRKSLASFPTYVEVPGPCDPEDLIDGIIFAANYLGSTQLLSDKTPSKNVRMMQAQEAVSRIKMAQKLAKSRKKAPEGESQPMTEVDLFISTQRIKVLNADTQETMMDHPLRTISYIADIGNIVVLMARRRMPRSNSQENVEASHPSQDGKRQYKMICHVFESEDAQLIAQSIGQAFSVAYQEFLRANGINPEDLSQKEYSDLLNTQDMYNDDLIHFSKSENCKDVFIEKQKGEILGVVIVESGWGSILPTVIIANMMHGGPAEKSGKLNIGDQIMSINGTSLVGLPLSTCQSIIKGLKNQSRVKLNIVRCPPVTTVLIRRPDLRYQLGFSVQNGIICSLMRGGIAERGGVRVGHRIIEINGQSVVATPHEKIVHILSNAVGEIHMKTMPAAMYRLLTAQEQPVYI
A further assay concerns the target Cytochrome P450 2C9 (Homo sapiens, UniProt P11712).
In assay [12] the target is T1, Voltage-gated N-type calcium channel alpha-1B subunit/Amyloid beta A4 precursor protein-binding family A member 1. Put plainly: disruptors of Mint-PDZ/N-type channel peptide interaction – biochemical, HTRF, SAR follow-up (AID 2489). In kind it is functional.
For assay [13] the target is unchanged. In kind it is protein assay. This is another data set of the same source.
In another assay the target is Keap1/Nrf2 (Homo sapiens, UniProt Q14145). Put plainly: disruptors of Keap1 binding to Nrf2 peptide – biochemical, fluorescence polarization, cherry-picked samples, dose response (AID 588683). In general terms: In fluorescence polarisation assays a small probe gives low polarisation when free and higher when bound to something large.
The next assay addresses ORF 73 (Human herpesvirus 8, UniProt O40947). Briefly: KSHV LANA DNA-binding disruption – biochemical, fluorescence polarization, cherry-picked samples, dose response (AID 504725).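 Further: fluorescence polarization of a labeled DNA duplex reporting LANA DNA binding; potency is for inhibitors that block LANA binding to the DNA.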 Also on record: species or system Human gammaherpesvirus 8.
Another assay relates to Salmon testes DNA. Put plainly: acridine orange-DNA binding displacement – biochemical, fluorescence polarization, cherry-picked samples, set 2, artefact control for KSHV LANA DNA-binding inhibitor project, dose response (AID 504727). More on the design: species or system Salmonidae.
The nature of assay [14]: Cytotoxicity screening for potential Inhibitors of Bacterial Capsule Biogenesis. [Related pubchem assays (depositor defined):AID488970]. In kind it is functional.
Assay [15] addresses T2, Short transient receptor potential channel 4 (Mus musculus, UniProt Q9QUQ5).
T2 sequence (Q9QUQ5 whole entry): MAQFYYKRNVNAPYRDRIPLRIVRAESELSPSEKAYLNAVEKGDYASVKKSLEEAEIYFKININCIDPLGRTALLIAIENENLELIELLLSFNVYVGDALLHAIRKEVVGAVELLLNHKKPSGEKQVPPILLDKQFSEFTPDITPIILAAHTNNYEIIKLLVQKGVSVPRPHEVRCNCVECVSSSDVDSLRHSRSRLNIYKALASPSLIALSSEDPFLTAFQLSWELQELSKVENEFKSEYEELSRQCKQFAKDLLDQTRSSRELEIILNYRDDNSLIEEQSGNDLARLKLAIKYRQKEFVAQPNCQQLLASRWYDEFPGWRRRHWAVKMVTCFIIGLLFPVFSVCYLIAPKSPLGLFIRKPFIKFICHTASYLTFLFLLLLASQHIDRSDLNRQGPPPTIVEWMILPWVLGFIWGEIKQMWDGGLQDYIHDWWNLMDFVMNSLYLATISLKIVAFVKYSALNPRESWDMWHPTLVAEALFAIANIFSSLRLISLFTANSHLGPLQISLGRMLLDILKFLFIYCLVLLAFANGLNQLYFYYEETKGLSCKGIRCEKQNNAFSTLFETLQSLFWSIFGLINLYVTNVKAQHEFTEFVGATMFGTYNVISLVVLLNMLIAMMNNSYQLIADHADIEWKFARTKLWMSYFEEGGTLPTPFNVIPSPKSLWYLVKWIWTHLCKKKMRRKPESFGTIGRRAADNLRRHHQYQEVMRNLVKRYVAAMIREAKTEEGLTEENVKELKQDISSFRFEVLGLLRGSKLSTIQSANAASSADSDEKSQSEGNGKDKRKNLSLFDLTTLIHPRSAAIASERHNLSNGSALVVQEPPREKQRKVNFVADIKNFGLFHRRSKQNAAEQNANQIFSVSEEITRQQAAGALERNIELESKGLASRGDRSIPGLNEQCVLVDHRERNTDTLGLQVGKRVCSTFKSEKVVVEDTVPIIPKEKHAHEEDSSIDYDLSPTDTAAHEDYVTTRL
Put plainly: block of DAMGO-driven TRPC4 calcium entry – cell-based, HEK293 TRPC4/mu-opioid, Fluo-4 calcium, dose response (AID 434942).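 Further: potency of inhibitors blocking the TRPC4 calcium response.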 In kind it is functional.

Assay [16] deals with Alkaline phosphatase, placental type (Homo sapiens, UniProt P05187). Put plainly: human placental alkaline phosphatase inhibition – biochemical, luminescence, confirmation (AID 1512). In kind it is functional.
Assay [17] deals with T3, Mannose-6-phosphate isomerase (Homo sapiens, UniProt P34949).
T3 sequence (P34949 whole entry): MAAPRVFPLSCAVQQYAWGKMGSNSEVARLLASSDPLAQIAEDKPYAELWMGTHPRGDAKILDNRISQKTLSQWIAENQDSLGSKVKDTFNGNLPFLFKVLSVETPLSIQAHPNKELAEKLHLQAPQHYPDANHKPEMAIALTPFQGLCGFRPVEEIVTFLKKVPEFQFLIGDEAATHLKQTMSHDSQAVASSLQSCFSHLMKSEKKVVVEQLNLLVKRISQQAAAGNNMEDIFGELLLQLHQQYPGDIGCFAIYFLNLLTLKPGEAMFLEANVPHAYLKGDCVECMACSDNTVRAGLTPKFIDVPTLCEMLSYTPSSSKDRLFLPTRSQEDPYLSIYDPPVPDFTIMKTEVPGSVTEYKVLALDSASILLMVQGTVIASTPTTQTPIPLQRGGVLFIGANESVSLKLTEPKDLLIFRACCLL
Put plainly: phosphomannose isomerase inhibition – biochemical, fluorescence intensity, confirmation (AID 1535).

For assay [18], the target named is T3, Mannose-6-phosphate isomerase. Put plainly: Confirmation of compounds inhibiting phosphomannose isomerase (PMI) via a fluorescence intensity assay using a high concentration of mannose 6-phosphate. [Related pubchem assays (depositor defined):AID1209, AID1220, AID1545, AID1553, AID1620].
A short description of assay [19]: cAMP pathway inhibition in counterscreen cell line – TR-FRET cAMP detection, counter-screen for MC4R biased antagonist project, dose response (AID 602305).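 Further: U2OS cells stimulated with forskolin near its EC80 as the cAMP inducer; potency is for inhibition of forskolin-stimulated cAMP signaling.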 In kind it is functional, cell-based. (Counterscreens check selectivity or assay interference.)
For assay [20], the target named is T4, High affinity choline transporter 1 (Homo sapiens, UniProt Q9GZV3).
T4 sequence (Q9GZV3 whole entry): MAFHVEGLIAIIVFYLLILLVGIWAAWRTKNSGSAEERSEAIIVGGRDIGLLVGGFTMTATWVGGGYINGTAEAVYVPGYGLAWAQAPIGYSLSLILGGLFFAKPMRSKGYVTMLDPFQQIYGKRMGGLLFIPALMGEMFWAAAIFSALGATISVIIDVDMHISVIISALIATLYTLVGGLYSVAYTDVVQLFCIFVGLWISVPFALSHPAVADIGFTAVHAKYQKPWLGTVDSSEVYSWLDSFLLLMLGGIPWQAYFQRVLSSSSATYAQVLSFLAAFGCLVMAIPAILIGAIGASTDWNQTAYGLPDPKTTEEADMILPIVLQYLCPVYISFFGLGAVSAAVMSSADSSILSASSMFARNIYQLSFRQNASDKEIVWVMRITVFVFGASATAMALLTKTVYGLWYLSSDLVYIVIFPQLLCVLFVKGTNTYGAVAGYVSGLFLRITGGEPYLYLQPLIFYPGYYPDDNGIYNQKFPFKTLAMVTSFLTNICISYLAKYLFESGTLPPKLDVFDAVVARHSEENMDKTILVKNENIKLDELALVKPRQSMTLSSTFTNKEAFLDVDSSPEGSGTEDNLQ
Put plainly: human choline transporter blockers, potency – cell-based, 5-point CRC, membrane potential dye, dose response (AID 504840). In kind it is functional.

The target in another assay is Melanocortin receptor 4 (Homo sapiens, UniProt P32245). Briefly: inhibitors of MC4R cAMP signaling – cell-based, TR-FRET, biased antagonists, dose response (AID 602298).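 Further: antagonist potency against agonist-stimulated cAMP production.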 In kind it is functional. (Time-resolved FRET reads energy transfer from a long-lived donor to a nearby acceptor.)
Melanocortin receptor 4, sequence (P32245 whole entry): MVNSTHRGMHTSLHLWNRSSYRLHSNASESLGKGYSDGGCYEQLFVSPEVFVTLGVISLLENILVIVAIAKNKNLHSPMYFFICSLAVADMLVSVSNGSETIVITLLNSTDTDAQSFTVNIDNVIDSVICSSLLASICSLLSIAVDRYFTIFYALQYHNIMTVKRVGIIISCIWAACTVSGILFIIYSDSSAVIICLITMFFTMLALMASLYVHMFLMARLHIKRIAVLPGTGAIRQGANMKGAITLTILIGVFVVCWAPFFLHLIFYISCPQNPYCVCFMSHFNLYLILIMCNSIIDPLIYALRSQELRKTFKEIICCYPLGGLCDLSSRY
For the next assay, the target named is X-box-binding protein 1 (Homo sapiens, UniProt P17861). In kind it is functional, Cricetulus griseus.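 Further: confirmatory dose-response counter-screen serving a CHOP assay.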

Calls of active or inactive are those of the source.

NACHT, LRR and PYD domains-containing protein 3, sequence (Q96P20 whole entry, the tested form may be a part): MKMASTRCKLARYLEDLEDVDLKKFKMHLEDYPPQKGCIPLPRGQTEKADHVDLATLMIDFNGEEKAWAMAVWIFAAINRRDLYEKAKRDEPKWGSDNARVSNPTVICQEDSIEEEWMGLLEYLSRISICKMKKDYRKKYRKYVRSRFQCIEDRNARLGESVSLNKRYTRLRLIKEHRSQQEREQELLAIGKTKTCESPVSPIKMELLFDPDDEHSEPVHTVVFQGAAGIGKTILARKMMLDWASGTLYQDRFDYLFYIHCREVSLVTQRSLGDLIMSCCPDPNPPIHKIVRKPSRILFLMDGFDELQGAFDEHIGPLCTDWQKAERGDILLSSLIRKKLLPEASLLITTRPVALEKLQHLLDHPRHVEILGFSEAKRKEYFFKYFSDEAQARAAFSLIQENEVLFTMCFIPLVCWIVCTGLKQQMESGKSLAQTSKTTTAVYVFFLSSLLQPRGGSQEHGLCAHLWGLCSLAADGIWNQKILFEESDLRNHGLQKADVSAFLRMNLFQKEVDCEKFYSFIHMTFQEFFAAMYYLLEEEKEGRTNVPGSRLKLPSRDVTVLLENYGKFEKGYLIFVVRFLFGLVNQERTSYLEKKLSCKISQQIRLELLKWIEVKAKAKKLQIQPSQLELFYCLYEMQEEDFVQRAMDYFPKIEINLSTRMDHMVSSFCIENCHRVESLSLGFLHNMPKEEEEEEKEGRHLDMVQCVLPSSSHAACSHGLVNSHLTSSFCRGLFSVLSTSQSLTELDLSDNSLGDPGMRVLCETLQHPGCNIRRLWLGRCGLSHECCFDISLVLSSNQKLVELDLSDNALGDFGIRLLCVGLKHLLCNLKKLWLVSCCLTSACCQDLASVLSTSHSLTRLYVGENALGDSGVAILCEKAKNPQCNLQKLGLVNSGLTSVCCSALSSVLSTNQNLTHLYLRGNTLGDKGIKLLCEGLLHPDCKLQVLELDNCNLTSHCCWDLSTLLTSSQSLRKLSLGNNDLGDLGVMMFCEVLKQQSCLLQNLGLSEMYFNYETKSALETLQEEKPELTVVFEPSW
Cytochrome P450 2C9, sequence (P11712 whole entry): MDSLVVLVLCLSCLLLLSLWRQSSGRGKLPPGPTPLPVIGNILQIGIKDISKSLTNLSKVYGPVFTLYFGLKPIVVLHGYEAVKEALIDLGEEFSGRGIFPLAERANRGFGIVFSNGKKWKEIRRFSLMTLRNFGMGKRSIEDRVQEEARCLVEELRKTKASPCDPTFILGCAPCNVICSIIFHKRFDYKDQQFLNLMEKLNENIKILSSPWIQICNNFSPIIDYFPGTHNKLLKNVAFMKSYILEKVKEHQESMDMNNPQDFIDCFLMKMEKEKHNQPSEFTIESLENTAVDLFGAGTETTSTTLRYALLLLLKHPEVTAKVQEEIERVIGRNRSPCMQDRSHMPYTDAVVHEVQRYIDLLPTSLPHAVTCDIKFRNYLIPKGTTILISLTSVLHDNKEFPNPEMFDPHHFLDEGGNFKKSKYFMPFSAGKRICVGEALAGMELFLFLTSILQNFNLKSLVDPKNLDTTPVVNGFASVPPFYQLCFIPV

As for `CSc1nc(-c2ccccc2)nc(-c2ccccc2)n1`, the IC50 in “cells” and with MDA-MB-435 was > 10 µM (inactive) each time.

For `COc1cccc(Nc2nnc(SCc3nc4ccccc4s3)s2)c1`, the EC50 is 1.31 µM (active) in assay [1]; 2.15 µM (active) in assay [2]; 46.8 µM (active) in [3]; 27.4 µM (active) in assay [4]; 4.9 µM (active) in assay [5].

Consider `Cc1cc(NC(=O)COC(=O)c2nccnc2N)n(-c2ccccc2)n1`, for which the results for the AC50 at CAAX prenyl protease 2 and on Trypsin were 1.84 µM (active) and 25.9 µM (active), respectively.

Regarding `COc1cc(/C=C/C(=O)NC(=O)c2ccccc2O)ccc1OC(C)=O`, in assay [6], the IC50 was > 150 µM (active).

For `Nc1ccc(Oc2cc(N)cc(Oc3ccccc3)c2)cc1`, the EC50 in the assay with H4 was 20.4 µM (active); in [7] it was 1.22 µM (active); in assay [3] it was < 0.1 µM (active); in assay [8] it was 2.5 µM (active); in assay [10], > 12 µM (not active). Besides, the IC50 in assay [9] is 4.74 µM (active).

As for `Nc1ccc(-c2nc3ccc(N)c(Cl)c3[nH]2)cc1`, the IC50 at Large T antigen is 7.64 µM (active); in [11], 1.94 µM (active); in assay [12] it was 11.6 µM (active); in assay [13] it was 9.64 µM (active). For the same compound, the AC50 on Cytochrome P450 2C19 is 6.31 µM (inconclusive); on Cytochrome P450 2C9 it was 0.112 µM (inconclusive).

In the case of `Cc1oc2cc(O)ccc2c(=O)c1-c1nncn1-c1ccccc1`, the AC50 on Keap1/Nrf2 was 43.4 µM (active); at ORF 73, 26.6 µM (active); with Salmon testes DNA it was 49.4 µM (active).

For `CCOc1ccc(-c2cc(NC(=O)c3c(F)cccc3F)c(C(=O)O)s2)cc1`, the CC50 in assay [14] was 66.7 µM (active). In assay [15], the EC50 is 2.99 µM (active).

In the case of `CCN1C(=O)C2(NNc3ccccc3O2)c2ccccc21` (centres undefined), the IC50 in [16], in assay [17] and in assay [18] was > 100 µM (inactive) each time.

Turning to `COc1cccc(C(=O)C(C#N)=C(SC)SC)c1`, the IC50 in assay [19] is > 64.6 µM (inactive); in assay [20] it was 11.2 µM (active); on Melanocortin receptor 4 it was > 64.6 µM (inactive). The “Absolute IC50 (XBP1)” value on X-box-binding protein 1 stood at 10 µM.

For the origin of these results see ChEMBL document CHEMBL1201862, “PubChem BioAssay data set” (2004).
